We go through 28 compounds from PubChem BioAssay (NCI).

What all share (assay): growth of human tumour cells (NCI), 48 h
The subject of test [1] is MOLT-4 leukemia.
The test system of test [2] is OVCAR-5 ovarian.
The test system of test [3] is SF-539 CNS.
Test [4] has as its system OVCAR-3 ovarian.
The subject of test [5] is HCC-2998 colon.
The subject of test [6] is CAKI-1 renal.
In test [7] the test system is UO-31 renal.

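Where inhibition never reached the appropriate level, the endpoint shown equals the highest concentration tested. Otherwise, values were interpolated linearly from a five-concentration, 48-hour dose response in 96-well plates. TGI denotes the concentration required for complete inhibition of growth.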

On to `CN(C)CCNC(=O)c1cccc2ncc(-c3ccccc3)nc12`, for which the TGI is 9.35 µM in test [1]; 30.5 µM in test [2]; 16.8 µM in test [3]; 66.8 µM in test [4]; 23.4 µM in test [5]; greater than 68.6 µM in test [6]. This compound returned a TGI in test [7] greater than 67.8 µM.

With `COCOCC[C@@H]1CC=CC(NC(=O)OCc2ccccc2)C1/C=C/C(=O)CCC1OCCO1` (stereo partly drawn), the TGI is 43.4 µM in test [1]; greater than 100 µM in test [2]; greater than 63 µM in test [3]; greater than 76.1 µM in test [4]; greater than 100 µM in test [5]; greater than 100 µM in test [6]. The compound also gave a TGI in test [7] greater than 100 µM.

Take `Cc1ccc(NC(=O)CC/C(CC(=O)C(C)(C)C)=N\Nc2ccc([N+](=O)[O-])cc2[N+](=O)[O-])cc1C`: the TGI in test [1], in test [2], in test [3] and in test [7] was greater than 100 µM in each case.

`C=C1C(=O)OC2C1C(OC(=O)/C(C)=C\C)CC1(CO1)C1C(O)C=C(C)C21O` (stereo not drawn): the TGI in test [1] stood at 11.8 µM; in test [2], 34.3 µM; in test [3], 8.06 µM; in test [4], 11.3 µM; in test [5] it was 15.1 µM; in test [6] it was 6.36 µM. Moreover, in test [7], the TGI came out at 22.2 µM.

`COc1cc(/C=C\c2ccc(OC(C)=O)cc2)cc(OC)c1OC`: the TGI in test [1] was greater than 100 µM; in test [2], greater than 100 µM; in test [4], greater than 100 µM; in test [5], greater than 100 µM; in test [6] it was greater than 100 µM; in test [7] it was 28.7 µM.

For `CC(=O)O/N=C(Cl)/C(Cl)=N/OC(C)=O`, the TGI in test [1], in test [2], in test [3], in test [5], in test [6] and in test [7] was greater than 100 µM each time.

For `CN(C)CCC1(C2=CCCC2)CC/C(=C\c2ccccc2Cl)C1=O` (stereo not drawn), the TGI in test [1] was 18.3 µM; in test [2] it was 29.1 µM; in test [3], 28.9 µM; in test [4], 28.9 µM; in test [5] it was 22.1 µM; in test [7], 20.1 µM.

With `O=C(O)CCSC(=O)Nc1ccccc1Cl`, the TGI in test [1], in test [2], in test [3], in test [4], in test [5] and in test [6] was greater than 100 µM throughout. This compound also registered a TGI in test [7] greater than 100 µM.

On to `OC1CCC[C@@H]1Sc1ccccc1` (stereo partly drawn), for which the TGI in test [1], in test [3], in test [4], in test [5], in test [6] and in test [7] was greater than 100 µM each time.

As to `Cn1nc(-c2ccccc2)c(C(=O)/C=C/c2ccc(F)cc2)c(N2CCOCC2)c1=O`, the TGI in test [1] is 48.7 µM; in test [3], 36.3 µM; in test [7] it was 25.6 µM.

With `C/C(CCn1[nH]c(=O)ccc1=O)=N\Nc1ccc([N+](=O)[O-])cc1[N+](=O)[O-]`, the TGI in test [1], in test [2], in test [3], in test [4], in test [5] and in test [6] was greater than 100 µM each time. Besides, the TGI in test [7] is greater than 100 µM.

In the case of `COC(=O)C(C(=O)C(=O)Nc1ccc(OC)cc1[N+](=O)[O-])c1nc2cc(C)c(C)cc2[nH]c1=O` (stereo not drawn), the TGI in test [3], in test [4], in test [5], in test [6] and in test [7] was greater than 100 µM throughout.

Take `C#CCN(N=O)C(=O)NCCCC(NC(C)=O)C(=O)NCc1ccccc1` (stereo not drawn): the TGI in test [1], in test [2], in test [3], in test [4], in test [5] and in test [6] was greater than 100 µM each time. This compound gave a TGI in test [7] greater than 100 µM.

With `Cc1c(C2Cc3ccccc3N2)c2ccccc2n1C` (stereo not drawn), the TGI in test [1], in test [2], in test [3], in test [4], in test [5] and in test [6] was greater than 100 µM throughout. Besides, the TGI in test [7] was greater than 100 µM.

Regarding `Cc1nc(Nc2ccccc2)sc1C(=O)CC(=O)C(=O)NC12CC3CC(CC(C3)C1)C2`, the TGI in test [1], in test [2], in test [3], in test [4], in test [5] and in test [6] was greater than 100 µM each time. The compound also gave a TGI in test [7] greater than 100 µM.

On to `COC(=O)C(=O)C(C(=O)C=C(C)C)C(=O)C(=O)Nc1nc2ccc([N+](=O)[O-])cc2s1` (stereo not drawn), for which the TGI in test [1] was greater than 100 µM; in test [2] it was greater than 100 µM; in test [3], greater than 100 µM; in test [4], greater than 100 µM; in test [5] it was greater than 100 µM; in test [6] it was 94.7 µM. In test [7], the TGI is greater than 100 µM.

For `NNC(=O)N/N=C1\C(=O)N(c2nccs2)C(=O)C(=O)C1c1nc2ccccc2s1` (stereo not drawn), the TGI in test [2], in test [3], in test [4], in test [5], in test [6] and in test [7] was greater than 100 µM each time.

In the case of `COc1cc2c(cc1OC)c1c(OC)c(OC)cc3c1c1c2sc(=S)n1CC3`, the TGI in test [1], in test [2], in test [3], in test [4], in test [5] and in test [6] was greater than 100 µM throughout. The TGI in test [7] is greater than 100 µM.

Turning to `COc1cc(CC(C(=O)O)C(=O)O)c(OC)cc1CC(C(=O)O)C(=O)O`, the TGI in test [1], in test [2], in test [3], in test [4], in test [6] and in test [7] was greater than 100 µM in each case.

On to `O=C(O)CCSC(=S)Nc1cccc(F)c1`, for which the TGI in test [1], in test [2], in test [3], in test [4], in test [5] and in test [6] was greater than 100 µM throughout. Also, the TGI in test [7] is greater than 100 µM.

Regarding `Nc1ccc2c(c1)Oc1c(F)c(F)cc3c(=O)c(C(=O)O)cn-2c13`, the TGI is greater than 100 µM in test [1]; greater than 100 µM in test [2]; greater than 100 µM in test [3]; 96.6 µM in test [4]; greater than 100 µM in test [5]; greater than 100 µM in test [6]. The same compound displayed a TGI in test [7] of 93.7 µM.

For the compound `CCOC(=O)c1c2cccccc2n2c(=O)cc(C)nc12`, the TGI in test [1], in test [2], in test [3], in test [4], in test [5] and in test [6] was greater than 100 µM each time. Moreover, in test [7], the TGI is greater than 100 µM.

For the compound `O=C1[C@H](Cl)[C@H]2c3cc4ccccc4nc3Oc3ccccc3N12`, the TGI in test [1] was greater than 100 µM; in test [2], greater than 100 µM; in test [4], greater than 100 µM; in test [5], greater than 100 µM; in test [6] it was greater than 100 µM; in test [7] it was 72.6 µM.

For `Cc1cc(C)nc(NS(=O)(=O)c2ccc(NC(=O)c3ccc(Cl)c4c(Nc5ccc(S(=O)(=O)N=C(N)N)cc5)c5ccccc5nc34)cc2)n1`, the TGI was 63.2 µM in test [1]; greater than 100 µM in test [2]; greater than 100 µM in test [3]; greater than 100 µM in test [4]; 78.2 µM in test [5]; greater than 100 µM in test [6]. In test [7], this compound returned a TGI greater than 100 µM.

With `CCOC(=O)C1SC(=Nc2ccc(Cl)cc2C)N=C1C` (stereo not drawn), the TGI in test [1] was determined as 47.9 µM; in test [2] it was 45.9 µM; in test [3], 34.5 µM; in test [4] it was 48.2 µM; in test [5] it was 47.9 µM; in test [6], 79.9 µM. In test [7], this compound returned a TGI of 39.9 µM.

Regarding `CC1=C2[C@H](c3ccccc3)C3C=CC2(c2ccccc23)N(C(=O)C(c2ccccc2)c2ccccc2)C1=O` (stereo partly drawn), the TGI in test [1], in test [2], in test [3], in test [4], in test [5] and in test [6] was greater than 100 µM throughout. In addition, in test [7], the TGI was greater than 100 µM.

For `CC(=N)N(C)O`, the TGI in test [1], in test [2], in test [3], in test [4], in test [5] and in test [7] was greater than 100 µM in each case.

In the case of `CCCCCCCCCCCCCC(=O)OCC1OC(n2cc(F)c(=O)[nH]c2=O)C(N)C(OC(=O)CCCCCCCCCCCCC)C1O` (stereo not drawn), the TGI in test [1], in test [3], in test [4], in test [5], in test [6] and in test [7] was greater than 100 µM throughout.
